This data set can be described thus: Solubilities of lamotrigine in various non-aqueous solvents and purified water. Format: physicochemical.

≈ marks a conversion by molar mass, not a printed value. Some results are limits rather than exact numbers.

In the case of `Nc1nnc(-c2cccc(Cl)c2Cl)c(N)n1` [lamotrigine, 3,5-diamino-6-(2,3-dichlorophenyl)-1,2,4-triazine], the solubility was 20.2 mg/mL (≈ 79 mM) (organic solvent or mixture, solvent Glycerin); greater than 30 mg/mL (organic solvent or mixture, solvent PEG 400); 10 to 20 mg/mL (≈ 39 to 78.1 mM) (organic solvent or mixture, solvent Polypropylene glycol 400); 40.2 mg/mL (≈ 157 mM) (organic solvent or mixture, solvent Propylene Glycol); 0.31 mg/mL (≈ 1.21 mM) (solvent Purified water).

A word on the solubility: it is how much of the substance goes into solution per volume.

(Values after patent publication US12661360B2 (Tulex Pharmaceuticals Inc., priority 2023, dated 2026).)
